# Reference: patent publication EP3057951B1, “METHYLENE LINKED QUINOLINYL MODULATORS OF ROR-GAMMA-T” (Janssen Pharmaceutica NV, priority 2013, dated 2015)
# Where a name gives a salt, the structure may show the parent alone.
# Target: T1, wild type human RORγt ligand binding domain (RORyt LBD) (Homo sapiens, UniProt P51449)
# T1 construct: His-tag (N); TurboTEV protease cleavage site (ENLYFQG) (N); made in house; host or cells: E. coli (pHIS1, modified pET vector)
# T1 sequence (P51449 258-518): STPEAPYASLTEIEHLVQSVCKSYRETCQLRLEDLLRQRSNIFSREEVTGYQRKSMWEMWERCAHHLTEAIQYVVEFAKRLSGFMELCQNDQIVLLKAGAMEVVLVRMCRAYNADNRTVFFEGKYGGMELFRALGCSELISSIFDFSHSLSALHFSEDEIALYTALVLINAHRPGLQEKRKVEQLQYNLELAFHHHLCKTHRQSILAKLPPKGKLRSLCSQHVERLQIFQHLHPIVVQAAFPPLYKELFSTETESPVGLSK
# Assay: RORγt ThermoFluor assay (thermal shift, binding affinity KD)
row,Structure (SMILES),Kd [nM]
1,"Cc1nc2ccc(C(O)(c3ccc(C(F)(F)F)nc3)c3cncn3C)cc2c(Cl)c1Cc1ccc(C(F)(F)F)cc1 (single isomer, unassigned) [Example 26c, (4-Chloro-2-methyl-3-(4-(trifluoromethyl)benzyl)quinolin-6-yl)(1-methyl-1H-imidazol-5-yl)(6-(trifluoromethyl)pyridin-3-yl)methanol]",0.77
2,"COc1nc2ccc(C(O)(c3cnnn3C)C3CN(C)C3)cc2c(Cl)c1Cc1ccc(C(F)(F)F)cc1 (single isomer, unassigned) [Example 90b, (4-Chloro-2-methoxy-3-(4-(trifluoromethyl)benzyl)quinolin-6-yl)(1-methyl-1H-1,2,3-triazol-5-yl)(1-methylazetidin-3-yl)methanol]",580
3,"COc1nc2ccc(C(O)(c3ccccn3)c3cncn3C)cc2c(Cl)c1Cc1ccc(S(C)(=O)=O)cc1 (single isomer, unassigned) [Example 58b, (4-Chloro-2-methoxy-3-(4-(methylsulfonyl)benzyl)quinolin-6-yl)(1-methyl-1H-imidazol-5-yl)(pyridin-2-yl)methanol]",3600
4,"COc1nc2ccc(C(O)(c3cnc(C)n3C)C3CCOCC3)cc2c(Cl)c1Cc1ccc(C(F)(F)F)cc1 (single isomer, unassigned) [Example 86b, (4-Chloro-2-methoxy-3-(4-(trifluoromethyl)benzyl)quinolin-6-yl)(1,2-dimethyl-1H-imidazol-5-yl)(tetrahydro-2H-pyran-4-yl)methanol]",27
5,"CCc1nc2ccc(C(O)(c3cnnn3C)C3CCOCC3)cc2c(Cl)c1Cc1ccc(C(F)(F)F)cc1 (single isomer, unassigned) [Example 33c, (4-Chloro-2-ethyl-3-(4-(trifluoromethyl)benzyl)quinolin-6-yl)(1-methyl-1H-1,2,3-triazol-5-yl)(tetrahydro-2H-pyran-4-yl)methanol]",0.84
6,"CC(=O)N1CCC(C(O)(c2ccccc2)c2ccc3nc(C)c(Cc4ccc(C(F)(F)F)cc4)c(Cl)c3c2)CC1 (single isomer, unassigned) [Example 27b, 1-(4-((4-Chloro-2-methyl-3-(4-(trifluoromethyl)benzyl)quinolin-6-yl)(hydroxy)(phenyl)methyl)piperidin-1-yl)ethanone]",0.63
7,"Cc1nc2ccc(C(O)(c3ccc(C(F)(F)F)nc3)c3cncn3C)cc2c(Cl)c1Cc1ccc(C(F)(F)F)cc1 (single isomer, unassigned) [Example 26b, (4-Chloro-2-methyl-3-(4-(trifluoromethyl)benzyl)quinolin-6-yl)(1-methyl-1H-imidazol-5-yl)(6-(trifluoromethyl)pyridin-3-yl)methanol]",15
8,"CCc1nc2ccc(C(O)(c3cnc(C)n3C)c3cnc(C)n3C)cc2c(Cl)c1Cc1ccc(C(F)(F)F)cc1 [Example 4, (4-Chloro-2-ethyl-3-(4-(trifluoromethyl)benzyl)quinolin-6-yl)bis(1,2-dimethyl-1H-imidazol-5-yl)methanole•TFA]",0.006
9,"Cc1nc2ccc(C(O)(c3cnnn3C)C3CN(C(=O)OC(C)(C)C)C3)cc2c(Cl)c1Cc1ccc(C(F)(F)F)cc1 (stereo not drawn) [Example 31, tert-Butyl 3-((4-chloro-2-methyl-3-(4-(trifluoromethyl)benzyl)quinolin-6-yl)(hydroxy)(1-methyl-1H-1,2,3-triazol-5-yl)methyl)azetidine-1-carboxylate]",0.79
10,"COc1nc2ccc(C(O)(c3ccccn3)c3cncn3C)cc2c(Cl)c1Cc1cc2ccccc2s1 (single isomer, unassigned) [Example 59c, (3-(Benzo[b]thiophen-2-ylmethyl)-4-chloro-2-methoxyquinolin-6-yl)(1-methyl-1H-imidazol-5-yl)(pyridin-2-yl)methanol]",800
11,"Cc1nc2ccc(C(O)(c3ccnc(C(F)(F)F)c3)c3cncn3C)cc2c(Cl)c1Cc1ccc(C(F)(F)F)cc1 (stereo not drawn) [Example 30a, (4-Chloro-2-methyl-3-(4-(trifluoromethyl)benzyl)quinofin-6-yl)(1-methyl-1H-imidazol-5-yl)(2-(trifluoromethyl)pyridin4-yl)methanol]",0.28
12,"CCc1nc2ccc(C(O)(c3ccccc3)C3CCN(C(C)=O)CC3)cc2c(Cl)c1Cc1ccc(-n2cccn2)cc1 (stereo not drawn) [Example 35, 1-(4-((3-(4-(1H-Pyrazol-1-yl)benzyl)4-chloro-2-ethylquinolin-6-yl)(hydroxy)(phenyl)methyl)piperidin-1-yl)ethanone]",3
13,"CCc1nc2ccc(C(O)(c3cnnn3C)C3CN(C(C)=O)C3)cc2c(C#N)c1Cc1ccc(C(F)(F)F)cc1 (single isomer, unassigned) [Example 37, 6-((1-Acetylazetidin-3-yl)(hydroxy)(1-methyl-1H-1,2,3-triazol-5-yl)methyl)-2-ethyl-3-(4-(trifluoromethyl)benzyl)quinoline4-carbonitrile]",1.9
14,"COc1nc2ccc(C(O)(c3ccc(C(F)(F)F)nc3)c3cnnn3C)cc2c(Cl)c1Cc1ccc(C(F)(F)F)cc1 (racemic) [Example 75a, (4-Chloro-2-methoxy-3-(4-(trifluoromethyl)benzyl)quinolin-6-yl)(1-methyl-1H-1,2,3-triazol-5-yl)(6-(trifluoromethyl)pyridin-3-yl)methanol]",3.3
15,"Cc1ccc(C(O)(c2ccc3nc(C)c(Cc4ccc(C(F)(F)F)cc4)c(Cl)c3c2)c2cnnn2C)c(C)n1 (single isomer, unassigned) [Example 28b, (4-Chloro-2-methyl-3-(4-(trifluoromethyl)benzyl)quinolin-6-yl)(2,6-dimethylpyridin-3-yl)(1-methyl-1H-1,2,3-triazol-5-yl)methanol]",160

# Results, then the molecule that gave them:
row,Kd [nM],Structure (SMILES)
1,0.15,"Cc1nc2ccc(C(O)(c3cnnn3C)c3cnc(C)n3C)cc2c(Cl)c1Cc1ccc(C(F)(F)F)cc1 (single isomer, unassigned) [Example 29c, (4-Chloro-2-methyl-3-(4-(trifluoromethyl)benzyl)quinolin-6-yl)(1,2-dimethyl-1H-imidazol-5-yl)(1-methyl-1H-1,2,3-triazol-5-yl)methanol]"
2,0.009,"CCc1nc2ccc(C(O)(c3cnc(C)n3C)c3cnc(C)n3C)cc2c(C#N)c1Cc1ccc(C(F)(F)F)cc1 [Example 8, 6-(bis(1,2-Dimethyl-1H-imidazol-5-yl)(hydroxy)methyl)-2-ethyl-3-(4-(trifluoromethyl)benzyl)quinoline-4-carbonitrile.TFA]"
3,0.02,"COc1nc2ccc(C(O)(c3ccc(C)nc3C)c3cnc(C)n3C)cc2c(Cl)c1Cc1ccc(C(F)(F)F)cc1 (single isomer, unassigned) [Example 57c, (4-Chloro-2-methoxy-3-(4-(trifluoromethyl)benzyl)quinolin-6-yl)(1,2-dimethyl-1H-imidazol-5-yl)(2,6-dimethylpyridin-3-yl)methanol]"
4,0.032,"COc1nc2ccc(C(O)(c3cnc(C)n3C)c3cnc(C)n3C)cc2c(Cl)c1Cc1ccc(C(F)(F)F)s1 [Example 7, (4-Chloro-2-methoxy-3-((5-(trifluoromethyl)thiophen-2-yl)methyl)quinolin-6-yl)bis(1,2-dimethyl-1H-imidazol-5-yl)methanol•TFA]"
5,0.03,"CCc1nc2ccc(C(O)(c3cnc(C)n3C)C3CCOCC3)cc2c(Cl)c1Cc1ccc(C(F)(F)F)cc1 (stereo not drawn) [Example 34a, (4-Chloro-2-ethyl-3-(4-(trifluoromethyl)benzyl)quinolin-6-yl)(1,2-dimethyl-1H-imidazol-5-yl)(tetrahydro-2H-pyran-4-yl)methanol]"
6,0.2,"COc1nc2ccc(C(O)(c3cnnn3C)C3CN(C(N)=O)C3)cc2c(Cl)c1Cc1ccc(C(F)(F)F)cc1 (stereo not drawn) [Example 91, 3-((4-Chloro-2-methoxy-3-(4-(trifluoromethyl)benzyl)quinolin-6-yl)(hydroxy)(1-methyl-1H-1,2,3-triazol-5-yl)methyl)azetidine-1-carboxamide]"
7,0.03,"COc1nc2ccc(C(O)(c3cnc(C)n3C)c3cnc(C)n3C)cc2c(Cl)c1Cc1ccc(OC(F)(F)F)cc1 [Example 76, (4-chloro-2-methoxy-3-(4-(trifluoromethoxy)benzyl)quinolin-6-yl)bis(1,2-dimethyl-1H-imidazol-5-yl)methanol]"
8,0.041,"COc1nc2ccc(C(O)(c3cnc(C)n3C)c3cnc(C)n3C)cc2c(Cl)c1Cc1cccc(C(F)(F)F)c1 [Example 5, (4-Chloro-2-methoxy-3-(3-(trifluoromethyl)benzyl)quinolin-6-yl)bis(1,2-dimethyt-1H-imidazol-5-yt)methanol•TFA]"
9,0.04,"Cc1nc2ccc(C(O)(c3cnnn3C)c3cnc(C)n3C)cc2c(Cl)c1Cc1ccc(C(F)(F)F)cc1 (single isomer, unassigned) [Example 29b, (4-Chloro-2-methyl-3-(4-(trifluoromethyl)benzyl)quinolin-6-yl)(1,2-dimethyl-1H-imidazol-5-yl)(1-methyl-1H-1,2,3-triazol-5-yl)methanol]"
10,0.046,"COc1nc2ccc(C(O)(c3cnc(C)n3C)c3cnc(C)n3C)cc2c(Cl)c1Cc1ccccc1C(F)(F)F [Example 6, (4-Chloro-2-methoxy-3-(2-(trifluoromethyl)benzyl)quinolin-6-yl)bis(1,2-dimethyl-1H-imidazol-5-yl)methanol•TFA]"
11,0.092,"Cc1nc2ccc(C(O)(c3ccnc(C(F)(F)F)c3)c3cncn3C)cc2c(Cl)c1Cc1ccc(C(F)(F)F)cc1 (single isomer, unassigned) [Example 30c, (4-Chloro-2-methyl-3-(4-(trifluoromethyl)benzyl)quinolin-6-yl)(1-methyl-1H-imidazol-5-yl)(2-(trifluoromethyl)pyridin-4-yl)methanol]"
12,0.1,"COc1nc2ccc(C(O)(c3cnc(C)n3C)c3cnc(C)n3C)cc2c(Cl)c1Cc1ccc(F)cc1 [Example 67, (4-Chloro-3-(4-fluorobenzyl)-2-methoxyquinolin-6-yl)bis(1,2-dimethyl-1H-imidazol-5-yl)methanol]"
